Patent EP0001618A2, “Process for the preparation of di-N-oxides and their pharmaceutical use” (BAYER AG, priority 1977, dated 1979)

Tested on: E. coli Neumann
Assay: Subcutaneous ED100 in infected mice
Type: in vivo
Conditions: Escherichia coli, sc, mice infected with E. coli Neumann, mg/kg body weight, ED100 = dose that cures 100 % of the animals, read-out: Subkutane ED100 bei infizierten Mäusen

With `Cc1c(C(=O)N2CN(C)CCN(C)C2)[n+]([O-])c2ccccc2[n+]1[O-]` [Beispiel 1] the ED100 was 5 to 10 mg/kg.
